Measurements: patent US10441594B2, “Methods of making quinoa leachates and uses thereof” (priority 2013, dated 2019)

Assays:
[1] = test system: diet-induced obese, hyperglycemic mice (C57BL/6J); test: Acute hypoglycemic study in diet-induced obese mice (fasting blood glucose); assay type: in vivo; settings: 300 mg/kg oral
Procedure: An acute hypoglycemic study in diet-induced obese mice was performed as described previously (Cheng et al., Food Chem 135: 2994-3002, 2012, incorporated herein by reference). Briefly, five-week-old male C57Bl/6J mice (Jackson Labs), acclimated for 1 week with ad libitum access to chow (Purina, No. 5014) and water, and maintained on a very high-fat diet (VHFD) containing 60% fat-derived calories (D12492; Research Diets) for an additional 15 weeks to induce obesity, insulin resistance, and hyperglycemia. Food intake and body weight were monitored weekly. Following a 4-hour fasting period, fasting blood glucose (FBG) was measured using an AlphaTRAK® handheld glucometer (Abbott Labs, Inc.), and mice were randomly divided into FBG-balanced experimental groups.
Quinoa leachate (QL) was formulated in 70% Labrasol® (Gattefossé Corp., Paramus, N.J.). The biological activity of QL was tested using an oral ingestion of 0.25 ml per 50 g body weight of vehicle (70% Labrasol®) or QL (250 and 500 mg/kg) (n=7). Metformin® (300 mg/kg, dissolved in water) was administered as a positive control. FBG was reassessed 4 hours post-treatment. Mean FBG values before and after treatment were calculated for each group and compared using paired t-tests in Microsoft Excel. Additionally, final % FBG (final FBG/initial FBG×100) of each mouse was calculated 4 hours post-treatment. […]

[2] = test system: diet-induced obese, hyperglycemic mice; settings: 10 mg/kg body weight for 13 wk; cited from earlier work

Structure (SMILES)	hypoglycemic effect compared with control (1-way ANOVA, Dunnett's post hoc test) ([1]; 4 hours)	FBG levels 4 hours after oral administration versus before treatment (paired t-test) ([1]; positive control)	blood glucose levels [2]	reduction of adiposity compared with control [2] [%]
CN(C)C(=N)N=C(N)N [Metformin]	significant hypoglycemic effects compared with control	significantly lowered FBG levels		
CC(C)(O)CC[C@@H](O)[C@](C)(O)[C@H]1CC[C@@]2(O)C3=CC(=O)[C@@H]4C[C@@H](O)[C@@H](O)C[C@]4(C)[C@H]3CC[C@]12C [20-HE, 20-hydroxyecdysone]			significantly lowered blood glucose levels	41
